PubChem BioAssay (NCI)
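Briefly, cells in 96-well plates were exposed to five compound concentrations for 48 h, and endpoints were estimated by linear interpolation. GI50 is the concentration that inhibits growth by half. At the TGI there is no net growth.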

How the values were obtained:
Assay in all cases: growth of human tumour cells (NCI), 48 h
[1] = tested on: NCI/ADR-RES ovarian
[2] = tested on: T-47D breast
[3] = tested on: UO-31 renal
[4] = tested on: HOP-62 NSCLC
[5] = tested on: DU-145 prostate
[6] = tested on: MALME-3M melanoma
[7] = tested on: TK-10 renal
[8] = tested on: MCF7 breast
[9] = tested on: HOP-92 NSCLC
[10] = tested on: SK-MEL-5 melanoma
[11] = tested on: HCT-15 colon
[12] = tested on: IGROV1 ovarian
[13] = tested on: HS 578T breast
[14] = tested on: A549 NSCLC
[15] = tested on: NCI-H460 lung
[16] = tested on: MDA-MB-468 breast
[17] = tested on: CAKI-1 renal
[18] = tested on: SK-MEL-2 melanoma
[19] = tested on: NCI-H522 lung
[20] = tested on: SR leukemia
[21] = tested on: U251 CNS
[22] = tested on: SNB-75 CNS
[23] = tested on: UACC-257 melanoma
[24] = tested on: SW-620 colon
[25] = tested on: M14 melanoma
[26] = tested on: SN12C renal
[27] = tested on: SK-MEL-28 melanoma
[28] = tested on: A498 renal
[29] = tested on: OVCAR-3 ovarian
[30] = tested on: OVCAR-4 ovarian
[31] = tested on: SK-OV-3 ovarian
[32] = tested on: SF-295 CNS
[33] = tested on: SF-268 CNS
[34] = tested on: COLO 205 colon
[35] = tested on: ACHN renal
[36] = tested on: K-562 leukemia
[37] = tested on: EKVX NSCLC
[38] = tested on: CCRF-CEM leukemia
[39] = tested on: OVCAR-5 ovarian
[40] = tested on: HCT-116 colon
[41] = tested on: HT29 colon
[42] = tested on: SNB-19 CNS
[43] = tested on: BT-549 breast
[44] = tested on: UACC-62 melanoma
[45] = tested on: KM12 colon
[46] = tested on: MOLT-4 leukemia
[47] = tested on: LOX IMVI melanoma
[48] = tested on: HL-60(TB) leukemia
[49] = tested on: HCC-2998 colon
[50] = tested on: MDA-MB-435
[51] = tested on: 786-0 renal
[52] = tested on: RXF 393 renal
[53] = tested on: MDA-MB-231 breast
[54] = tested on: SF-539 CNS
[55] = tested on: PC-3 prostate
[56] = tested on: RPMI-8226 leukemia
[57] = tested on: OVCAR-8 ovarian
[58] = tested on: NCI-H226 lung
[59] = tested on: NCI-H23 lung

CCc1ccc(SC2c3cc(OC)ccc3Oc3nc(N)c(C#N)c(N)c32)cc1 (stereo not drawn)
GI50 [1]: 3.24 µM | TGI [1]: 26.4 µM | GI50 [2]: 3.36 µM | TGI [2]: 32.9 µM | GI50 [3]: 0.575 µM | TGI [3]: 4.17 µM | GI50 [4]: 3.77 µM | TGI [4]: > 100 µM | GI50 [5]: 11.7 µM | TGI [5]: 24.6 µM | GI50 [6]: 10.6 µM | TGI [6]: 22.7 µM | GI50 [7]: 9.67 µM | TGI [7]: 32.2 µM | GI50 [8]: 3.04 µM | TGI [8]: 13.6 µM | GI50 [9]: 3.66 µM | TGI [9]: 35.4 µM | GI50 [10]: 3.23 µM | TGI [10]: 13.7 µM | GI50 [11]: 2.96 µM | TGI [11]: 19.3 µM | GI50 [12]: 0.349 µM | TGI [12]: 1.51 µM | GI50 [13]: 2.35 µM | TGI [13]: 9.18 µM | GI50 [14]: 3.99 µM | TGI [14]: 49.4 µM | GI50 [15]: 2.84 µM | TGI [15]: 15.3 µM | GI50 [16]: 2.1 µM | TGI [16]: 6.56 µM | GI50 [17]: 1.89 µM | TGI [17]: 15 µM | GI50 [18]: 3.42 µM | TGI [18]: 13 µM | GI50 [19]: 1.69 µM | TGI [19]: 3.49 µM | GI50 [20]: 2.61 µM | TGI [20]: 22.8 µM | GI50 [21]: 1.82 µM | TGI [21]: 15.3 µM | GI50 [22]: 0.566 µM | TGI [22]: 4.02 µM | GI50 [23]: 9.06 µM | TGI [23]: 29.6 µM | GI50 [24]: 3.15 µM | TGI [24]: 13.1 µM | GI50 [25]: 2.67 µM | TGI [25]: 12.4 µM | GI50 [26]: 1.76 µM | TGI [26]: 15.8 µM | GI50 [27]: 2.99 µM | TGI [27]: 12.5 µM | GI50 [28]: 3.32 µM | TGI [28]: 10.8 µM | GI50 [29]: 2.9 µM | TGI [29]: 12.6 µM | GI50 [30]: 4.23 µM | TGI [30]: 41.6 µM | GI50 [31]: 6.62 µM | TGI [31]: 82.4 µM | GI50 [32]: 3.28 µM | TGI [32]: 15.7 µM | GI50 [33]: 1.99 µM | TGI [33]: 20.5 µM | GI50 [34]: 2.35 µM | TGI [34]: 6.19 µM | GI50 [35]: 5.6 µM | TGI [35]: 25.3 µM | GI50 [36]: 3.51 µM | TGI [36]: 24.4 µM | GI50 [37]: 3.74 µM | TGI [37]: 17.3 µM | GI50 [38]: 0.225 µM | TGI [38]: 4.34 µM | GI50 [39]: 3.41 µM | TGI [39]: 14.4 µM | GI50 [40]: 3.05 µM | TGI [40]: 13.9 µM | GI50 [41]: 6.15 µM | TGI [41]: > 100 µM | GI50 [42]: 3.17 µM | TGI [42]: 16.6 µM | GI50 [43]: 0.742 µM | TGI [43]: 3.25 µM | GI50 [44]: 2.73 µM | TGI [44]: 11.5 µM | GI50 [45]: 3.43 µM | TGI [45]: 16.1 µM | GI50 [46]: 1.28 µM | TGI [46]: 9.69 µM | GI50 [47]: 0.23 µM | TGI [47]: 0.658 µM | GI50 [48]: 2.09 µM | TGI [48]: 6.11 µM | GI50 [49]: 4.9 µM | TGI [49]: 17.1 µM | GI50 [50]: 2.05 µM | TGI [50]: 11.6 µM | GI50 [51]: 3.11 µM | TGI [51]: 24.9 µM | GI50 [52]: 1.76 µM | TGI [52]: 5.09 µM | GI50 [53]: 3.34 µM | TGI [53]: 17 µM | GI50 [54]: 1.59 µM | TGI [54]: 3.27 µM | GI50 [55]: 1.52 µM | TGI [55]: 18.6 µM | GI50 [56]: 3.02 µM | TGI [56]: 14.6 µM | GI50 [57]: 5.85 µM | TGI [57]: 37.4 µM | GI50 [58]: 2.26 µM | TGI [58]: 23.3 µM | GI50 [59]: 2.9 µM | TGI [59]: 14 µM
